Measurements from ChEMBL document CHEMBL1127830, “A new photoaffinity analog of cGMP: potent inhibitor of cyclic nucleotide phosphodiesterase” (J Med Chem, 1994).

Legend:
[1] = Inhibition of rat bladder dome cAMP phosphodiesterase
[2] = Inhibition of human platelet cAMP phosphodiesterase
[3] = Inhibition of rat bladder dome cGMP phosphodiesterase

**Q.** What does the source list for `NC1=NC(=O)C2N=CN([C@@H]3O[C@@H]4COP(=O)(O)O[C@H]4[C@H]3OC(=O)c3ccc(C(=O)c4ccccc4)cc3)C2=N1` (stereo partly drawn)?
**A.** IC50 [1]: 15.8 µM; IC50 [2]: 3.4 µM; IC50 [3]: 0.3 µM
